In data set [1] the test system is HIV-1KIZ011 (CRF07_BC). Particulars: HIV-1KIZ011, PBMC, p24.
For data set [2], the system named is HIV-1IIIB. The data set is described as follows: qPCR determination of Late-RT, 2-LTR and Alu-LTR in infected C8166 cells. The class given is cell-based. In general terms: Real-time PCR tracks product formation cycle by cycle.
Data set [3] has as its system HIV-1WAN (CRF01_AE). Briefly: microbe, parasite or virus in culture. Particulars: Human immunodeficiency virus 1, PBMC.
Data set [4] relates to HIV-1WAN (CRF01_AE). Particulars: PBMC, p24.
Data set [5] deals with HIV-1_4755-5. As to conditions: HIV-1_4755-5, C8166, p24.
In data set [6] the test system is HIV-1IIIB. The data set is described as follows: HIV-1IIIB-induced cytopathic effect (syncytia counting) in C8166 cells. A general note: Protection from cytopathic effect is a common read-out in antiviral testing.
Data set [7] in a line: Cytotoxicity MTT assay in MT4 cells. Particulars: human. Type of data set: cell-based. In general terms: Tetrazolium assays rely on reduction of a dye to a coloured formazan, in cell work by metabolically active cells.
The next data set relates to NL4-3. The data set is described as follows: microbe, parasite or virus in culture. The class given is cell-based. Particulars: Human immunodeficiency virus 1, NL43; NL4-3, p24.
Data set [8] has as its system HIV-1IIIB. The data set is described as follows: microbe, parasite or virus in culture. Type of data set: cell-based. As to conditions: Human immunodeficiency virus 1, MT4, MTT.
The nature of data set [9]: Cytotoxicity MTT assay in PBMCs. The class given is cell-based. Particulars: human, peripheral blood mononuclear cells (PBMCs), PBMC.
The subject of data set [10] is HIV-1TC-1 (CRF01_AE). Briefly: microbe, parasite or virus in culture. Particulars: Human immunodeficiency virus 1, PBMC.
The next data set deals with drug-resistant strains. Briefly: microbe, parasite or virus in culture. Particulars: Human immunodeficiency virus 1; panel of drug-resistant strains; read-out: EC50 range. Type of data set: cell-based.
On the set-up of data set [11]: method as in CTR20240167. As to conditions: healthy adults, single-dose administration; ref CTR20240167; cited from earlier work.
Data set [12] addresses HIV-1 mutant N155H integrase (Human immunodeficiency virus type 1 group M subtype B, UniProt P04585, N1302H). The data set is described as follows: biochemical. Particulars: HIV-1N155H integrase, mean n = 4.
Data set [13] concerns clinical isolated strains. Briefly: microbe, parasite or virus in culture. Type of data set: cell-based. Particulars: Human immunodeficiency virus 1, read-out: EC50 range.
The subject of a further data set is NL4-3IN-R263K. Briefly: microbe, parasite or virus in culture. The class given is cell-based. Particulars: Human immunodeficiency virus 1; read-out: EC50.
Data set [14] deals with HIV-1_4755-5. The data set is described as follows: microbe, parasite or virus in culture. Particulars: Human immunodeficiency virus 1, C8166.
Data set [15] concerns HIV-1IIIB. The data set is described as follows: Combined antiviral activity assay (p24 ELISA, CompuSyn). The class given is cell-based.
Data set [16] deals with HIV-1TC-1 (CRF01_AE). As to conditions: HIV-1TC-1, PBMC, p24.
Data set [17] relates to HIV-1KIZ011 (CRF07_BC). The data set is described as follows: microbe, parasite or virus in culture. Particulars: Human immunodeficiency virus 1, PBMC.
The test system of data set [18] is HIV-1A17. Briefly: microbe, parasite or virus in culture. As to conditions: Human immunodeficiency virus 1, C8166.
Data set [19] can be described thus: Cytotoxicity MTT assay in C8166 cells. The class given is cell-based. As to conditions: human.
The test system of the next data set is HIV-1DRACC017. The data set is described as follows: microbe, parasite or virus in culture. The class given is cell-based. As to conditions: for EC50: Human immunodeficiency virus 1, HIV-1DRACC017, p24.
In data set [20] the test system is HIV-1IIIB. Briefly: microbe, parasite or virus in culture. As to conditions: Human immunodeficiency virus 1, C8166, HIV-1IIIB.
For data set [21], the system named is pNL4-3gp41(36G) V38A, N42T. As to conditions: C8166, p24.
Data set [22] deals with HIV-1IIIB.
Data set [23] deals with HIV-1A17. As to conditions: HIV-1A17, C8166, p24.
Where [24] appears, read: p24 (Table 4, resistance study).

“And” between values parts separate entries of the source, which are not always exact repeats. Identical values can stand only once. Like-named read-outs stand apart in the source and are kept apart here.

Consider `C[C@H]1N2C(=O)c3c(O)c(=O)c(C(=O)NCc4ccc(F)cc4F)cn3C[C@@H]2OCC12CC2` [ACC017], for which the “SI (CC50/EC50)” value is recorded as 46,181.82 with HIV-1KIZ011 (CRF07_BC) [1]; 8561.80 in the data set on HIV-1WAN (CRF01_AE) [4]; 2233.55 in the data set with HIV-1_4755-5 [5]; 34,525.42 with HIV-1IIIB [6] (HIV-1IIIB, C8166, syncytia); 138,545.45 in the data set on HIV-1TC-1 (CRF01_AE) [16]; 59,911.76 in data set [21]. In addition, the “SI (CC50/EC50)” value is recorded as 34,525.42 in the data set with HIV-1IIIB [22] (C8166, p24) and 2393.65 with HIV-1A17 [23]. The “Late-RT level versus positive control (PC) group” value with HIV-1IIIB [2] (C8166, HIV-1IIIB MOI 0.5, 100 nM ACC017, 4-8 h) was “no significant difference compared with the PC group”. The “2-LTR level (nuclear entry)” value in the data set with HIV-1IIIB [2] (C8166, HIV-1IIIB MOI 0.5, 100 nM ACC017, 8, 12, 24 h) was “unable to block the nuclear entry process”. Further, the “Alu-LTR level (integrated provirus)” value in the data set with HIV-1IIIB [2] (C8166, HIV-1IIIB MOI 0.5, 100 nM ACC017, 24 h, nested PCR) is listed as “significantly reduced”. Also, the EC50 with HIV-1WAN (CRF01_AE) [3] is 1.78 ± 0.29 nM; in the data set on HIV-1IIIB [6] (Human immunodeficiency virus 1, C8166), 0.59 ± 0.09 nM; with NL4-3, 1.7 ± 0.47 nM; in the data set on HIV-1IIIB [8], 0.05147 ± 2e-05 nM; in the data set on HIV-1TC-1 (CRF01_AE) [10], 0.11 ± 0.06 nM; with drug-resistant strains, 0.34 to 9.12 nM. Besides, the EC50 in data set [13] is 0.11 to 1.78 nM; with NL4-3IN-R263K, 28.1 ± 4.22 nM; in the data set on HIV-1_4755-5 [14], 9.12 ± 2.31 nM; in the data set on HIV-1KIZ011 (CRF07_BC) [17] it was 0.33 ± 0.06 nM; with HIV-1A17 [18] it was 8.51 ± 0.25 nM; with HIV-1DRACC017 it was above 5000 nM. Moreover, the concentration for a half-maximal effect (EC50) in the data set on HIV-1IIIB [20] (C8166, p24 (Table 1)) was determined as 0.59 ± 0.09 nM; in the data set on HIV-1IIIB [20] (C8166, p24, 20% human serum) it was 8.28 ± 2.02 nM; with HIV-1IIIB [20] (setting [24]) it was 1.25 ± 0.48 nM; in [21] it was 0.34 ± 0.09 nM. Moreover, the CC50 at 3 d in data set [7] was 24800 ± 80 nM; in data set [19], 20370 ± 100 nM. Further, the CC50 at 7 d in data set [9] was 15200 nM. Further, the Safety and tolerability result in data set [11] is “favorable safety and tolerability profile”. The compound further had a concentration for half-maximal inhibition (IC50) in data set [12] of 9.91 nM. Also, the “DRI Value ED75” value in the data set on HIV-1IIIB [15] (combination ACC017 + 3TC) was 5.25; in the data set on HIV-1IIIB [15] (combination ACC017 + ACC007), 4.07; in the data set with HIV-1IIIB [15] (combination ACC017 + ACC017), 1.77 and 3.46; with HIV-1IIIB [15] (combination ACC017 + DTG), 2.89; in the data set with HIV-1IIIB [15] (combination ACC017 + FTC + TAF) it was 4.62. Also, the “DRI Value ED90” value is 9.07 in the data set with HIV-1IIIB [15] (combination ACC017 + 3TC); 6.48 in the data set on HIV-1IIIB [15] (combination ACC017 + ACC007); 2.06 and 2.77 in the data set on HIV-1IIIB [15] (combination ACC017 + ACC017); 2.45 in the data set on HIV-1IIIB [15] (combination ACC017 + DTG); 6.79 in the data set with HIV-1IIIB [15] (combination ACC017 + FTC + TAF). The “DRI Value ED95” value in the data set on HIV-1IIIB [15] (combination ACC017 + 3TC) was 13.15; with HIV-1IIIB [15] (combination ACC017 + ACC007), 8.97; with HIV-1IIIB [15] (combination ACC017 + ACC017) it was 2.32 and 2.42; in the data set with HIV-1IIIB [15] (combination ACC017 + DTG), 2.27; with HIV-1IIIB [15] (combination ACC017 + FTC + TAF), 9.05. For the same compound, the “Fold increase of EC50 in the presence of 20% human serum” value in the data set with HIV-1IIIB [22] (C8166, p24, with vs without 20% human serum) was found to be 14.03 fold.
Take `Nc1nc(=O)n([C@@H]2CS[C@H](CO)O2)cc1F` [FTC, Emtricitabine]: in the data set with HIV-1IIIB [15] (combination ACC017 + FTC + TAF), the “DRI Value ED75” value is given as 7.82, the “DRI Value ED90” value stood at 12.57 and the “DRI Value ED95” value is 17.41. Moreover, in the data set with HIV-1IIIB [15] (combination DTG + FTC + TAF), the “DRI Value ED75” value stood at 7.15, the “DRI Value ED90” value stood at 12.20 and the “DRI Value ED95” value is given as 17.77.
Consider `Nc1ccn([C@@H]2CS[C@H](CO)O2)c(=O)n1` [3TC, Lamivudine], for which the EC50 with NL4-3 came out at 198 ± 101 nM; in the data set on NL4-3IN-R263K, 180 ± 38.5 nM; with HIV-1DRACC017 it was 322 ± 34.6 nM; in the data set with HIV-1IIIB [20] (setting [24]), 181 ± 41.5 nM. Moreover, the “DRI Value ED75” value was found to be 6.21 in the data set with HIV-1IIIB [15] (combination ACC017 + 3TC) and 5.03 in the data set on HIV-1IIIB [15] (combination DTG + 3TC). The “DRI Value ED90” value in the data set on HIV-1IIIB [15] (combination ACC017 + 3TC) is listed as 7.90; with HIV-1IIIB [15] (combination DTG + 3TC) it was 6.79. Besides, the entries for the “DRI Value ED95” value in the data set with HIV-1IIIB [15] (combination ACC017 + 3TC) and in the data set with HIV-1IIIB [15] (combination DTG + 3TC) were 9.30 and 8.33, respectively. Also, the “FC (Fold Change) EC50 (HIV-1DRACC017)/EC50 (HIV-1IIIB)” value in the data set on HIV-1DRACC017 (p24) is 1.78.

Usually EC50 stands for the concentration needed to bring the measured effect to its halfway point. The CC50 is the concentration at which the toxic effect on the cells reaches its halfway point. A low value points to harm at low concentration. What is called IC50 is the concentration that inhibits the measured activity by half. The low end stands for higher potency, the high end for lower potency.
